{
  "source": "ChEMBL document CHEMBL1152139",
  "about": "“Pterocarpans and flavanones from Sophora flavescens displaying potent neuraminidase inhibition” (Bioorg Med Chem Lett, 2008)",
  "key": {"[1]": {"test": "Inhibition of mouse liver sialidase"}, "[2]": {"test": "Inhibition of Clostridium perfringens neuraminidase by Lineweaver-Burke plot"}, "[3]": {"test": "Inhibition of Clostridium perfringens neuraminidase"}},
  "data": [
    {"smiles": "O=C(O)[C@H]1O[C@@H](Oc2c(O)c(O[C@@H]3O[C@H](C(=O)O)[C@@H](O)[C@H](O)[C@H]3O)c3oc(-c4ccc(O)cc4)cc(=O)c3c2O)[C@H](O)[C@@H](O)[C@@H]1O", "values": [
      {"measurement": "IC50", "setting": "[1]", "value": 40, "unit": "µM"}
    ]},
    {"smiles": "C=C(C)[C@H](CCC(C)(C)O)Cc1c(O)cc(OC)c2c1O[C@H](c1ccc(O)cc1O)CC2=O", "note": "[KURARINOL]", "values": [
      {"measurement": "Ki", "setting": "[2]", "value": 19.7, "unit": "µM"},
      {"measurement": "IC50", "setting": "[3]", "value": 17, "unit": "µM"}
    ]},
    {"smiles": "C=C(C)C(CC=C(C)C)Cc1c(O)cc(OC)c2c1O[C@H](c1ccc(O)cc1O)CC2=O", "note": "(stereo not given in full) [KURARINONE]", "values": [
      {"measurement": "Ki", "setting": "[2]", "value": 18.8, "unit": "µM"},
      {"measurement": "IC50", "setting": "[3]", "value": 15.1, "unit": "µM"}
    ]},
    {"smiles": "C=C(C)[C@H](CC=C(C)C)Cc1c(O)cc(O)c2c1O[C@H](c1ccccc1O)CC2=O", "note": "[KUSHENOL A]", "values": [
      {"measurement": "Ki", "setting": "[2]", "value": 17.1, "unit": "µM"},
      {"measurement": "IC50", "setting": "[3]", "value": 14.8, "unit": "µM"}
    ]},
    {"smiles": "C=C(C)[C@H](CCC(C)(C)O)Cc1c(O)cc(O)c2c1O[C@H](c1ccccc1O)CC2=O", "note": "[KUSHENOL T]", "values": [
      {"measurement": "Ki", "setting": "[2]", "value": 10.8, "unit": "µM"},
      {"measurement": "IC50", "setting": "[3]", "value": 12.1, "unit": "µM"}
    ]},
    {"smiles": "Oc1ccc2c(c1)OC[C@H]1c3cc4c(cc3O[C@@H]21)OCO4", "note": "[MAACKIAIN]", "values": [
      {"measurement": "Ki", "setting": "[2]", "value": 2.1, "unit": "µM"},
      {"measurement": "IC50", "setting": "[3]", "value": 3.2, "unit": "µM"}
    ]},
    {"smiles": "O=c1c2cc(O)c(O)cc2oc2cc(O)c([C@@H]3O[C@H](CO)[C@@H](O)[C@H](O)[C@H]3O)c(O)c12", "note": "[MANGIFERIN]", "values": [
      {"measurement": "IC50", "setting": "[3]", "value": 16.2, "unit": "µM"}
    ]},
    {"smiles": "C=C(C)[C@H](CCC(C)(C)O)Cc1c(O)cc(O)c2c1O[C@H](c1ccc(O)cc1O)CC2=O", "note": "[NORKURARINOL]", "values": [
      {"measurement": "Ki", "setting": "[2]", "value": 22.7, "unit": "µM"},
      {"measurement": "IC50", "setting": "[3]", "value": 18.3, "unit": "µM"}
    ]},
    {"smiles": "COc1ccc2c(c1)OC[C@H]1c3cc4c(cc3O[C@@H]21)OCO4", "note": "[PTEROCARPIN]", "values": [
      {"measurement": "Ki", "setting": "[2]", "value": 1.7, "unit": "µM"},
      {"measurement": "IC50", "setting": "[3]", "value": 1.4, "unit": "µM"}
    ]},
    {"smiles": "C=C(C)[C@H](CC=C(C)C)Cc1c(O)cc(O)c2c1O[C@H](c1ccc(O)cc1O)CC2=O", "note": "[SOPHORAFLAVANONE G]", "values": [
      {"measurement": "Ki", "setting": "[2]", "value": 20, "unit": "µM"},
      {"measurement": "IC50", "setting": "[3]", "value": 13.5, "unit": "µM"}
    ]},
    {"smiles": "OC[C@H]1O[C@@H](Oc2ccc3c(c2)OC[C@H]2c4cc5c(cc4O[C@@H]32)OCO5)[C@H](O)[C@@H](O)[C@@H]1O", "note": "[TRIFOLIRHIZIN]", "values": [
      {"measurement": "Ki", "setting": "[2]", "value": 190, "unit": "µM"},
      {"measurement": "IC50", "setting": "[3]", "value": 237, "unit": "µM"}
    ]}
  ]
}
